These results are taken from patent publication US7812022B2 (GlaxoSmithKline LLC, priority 2004, dated 2010).

SMILES strings stand for the structures.

Test [1] has as its system BT474 and HN5 tumor cell lines. Nature of the test: Methylene blue growth inhibition assay (cellular Method A). The conditions noted are these: Homo sapiens, BT-474, 72 h, 3 days, read-out: Activity (Method): growth inhibition IC50 class. The format is cell-based, Human. The gist of the method:
(§1)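 Growth inhibition measured by methylene blue staining of biomass (OD 620) after 3 days' compound exposure at 37° C, final DMSO 0.3%. Cell lines: BT474 (10,000/well), HN5 (3,000/well) and Colo205, all in DMEM with 10% FBS; IC50 fitted by nonlinear regression against vehicle-treated wells.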

For another test, the target named is T1, ErbB2 or EGFR.
T1 construct: enzymes purified from a baculovirus expression system; Reagent production was conducted essentially as described in Brignola, P. S., et al, (2002) J. Biol. Chem. 277(2): 1576-1585
Nature of the test: ErbB family substrate phosphorylation enzyme assay (HTRF), Method A or Method B. The format is biochemical. Summed up:
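Baculovirus-expressed EGFR or ErbB2 (0.8 or 10 nM in enzyme mix) phosphorylates biotinylated Peptide C with 20 µM ATP and 0.8 µM peptide (substrate-mix levels), MnCl2, pH 7.5. Reaction ran 90 min at 20 °C with EDTA stop and HTRF anti-phosphotyrosine read. Method A: enzyme added last; Method B: 1 h enzyme–compound preincubation.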

The subject of another test is Colo205 tumor cell lines. Nature of the test: Methylene blue growth inhibition assay (cellular Method A), Colo205. The format is cell-based, Human. The conditions noted are these: Homo sapiens, COLO 205, 72 h, 3 days, read-out: Activity (Method): growth inhibition IC50 class. The gist of the method:
as §1

The mark [2] stands for this setting: Method B: enzyme mix pre-incubated with compound 1 hour at 20° C., started with substrate mix.
[3] abbreviates: Method A: substrate mix added first, reaction started with enzyme mix.

What is called IC50 is the concentration that gives 50% inhibition. As to `COc1ccc(Nc2nccc(-c3c(-c4cccc(NC(=O)c5c(F)cccc5F)c4)nn4ccccc34)n2)cc1O` [Example 166, 2,6-Difluoro-N-{3-[3-(2-{[3-hydroxy-4-(methyloxy)phenyl]amino}-4-pyrimidinyl)pyrazolo[1,5-a]pyridin-2-yl]phenyl}benzamide], the IC50 in test [1] is less than 100 nM; with Colo205 tumor cell lines it was greater than 1000 nM. Besides, at ErbB2 or EGFR (setting [2]), the “Activity (Method): pIC50 class against ErbB2 or EGFR” value (from here on “Activity (Method): pIC50 class”) is “+++ (B) (at least one pIC50 measurement of greater than 7 against either ErbB2 or EGFR)”.
In the case of `O=C(Nc1cccc(-c2nn3ccccc3c2-c2ccnc(Nc3ccc(O)c(Cl)c3)n2)c1)c1c(F)cccc1F` [Example 86, N-[3-(3-{2-[(3-Chloro-4-hydroxyphenyl)amino]-4-pyrimidinyl}pyrazolo[1,5-a]pyridin-2-yl)phenyl]-2,6-difluorobenzamide], the IC50 in test [1] was less than 100 nM; in the test with Colo205 tumor cell lines it was greater than 1000 nM. At ErbB2 or EGFR (setting [3]), the “Activity (Method): pIC50 class” value is recorded as “+++ (A) (at least one pIC50 measurement of greater than 7 against either ErbB2 or EGFR)”.
Turning to `O=C1COc2cc(Nc3nccc(-c4c(-c5cccc(NC(=O)c6c(F)cccc6F)c5)nn5ccccc45)n3)ccc2N1` [Example 200, 2,6-Difluoro-N-[3-(3-{2-[(3-oxo-3,4-dihydro-2H-1,4-benzoxazin-7-yl)amino]-4-pyrimidinyl}pyrazolo[1,5-a]pyridin-2-yl)phenyl]benzamide], the IC50 in test [1] was less than 100 nM; in the test with Colo205 tumor cell lines, 100 to 1000 nM. Besides, the “Activity (Method): pIC50 class” value at ErbB2 or EGFR (setting [2]) is on record as “+++ (B) (at least one pIC50 measurement of greater than 7 against either ErbB2 or EGFR)”.
As for `CN1CCc2ccc(Nc3nccc(-c4c(-c5cccc(NC(=O)c6cc(F)ccc6F)c5)nn5ccccc45)n3)cc2C1` [Example 189, 2,5-Difluoro-N-[3-(3-{2-[(2-methyl-1,2,3,4-tetrahydro-7-isoquinolinyl)amino]-4-pyrimidinyl}pyrazolo[1,5-a]pyridin-2-yl)phenyl]benzamide], the IC50 is less than 100 nM in test [1] and greater than 1000 nM with Colo205 tumor cell lines. Moreover, the “Activity (Method): pIC50 class” value on ErbB2 or EGFR (setting [2]) is “+++ (B) (at least one pIC50 measurement of greater than 7 against either ErbB2 or EGFR)”.
Consider `O=C(Nc1cccc(-c2nn3ccccc3c2-c2ccnc(Nc3cccc(CCN4CCOCC4)c3)n2)c1)c1c(F)cccc1F` [Example 54, 2,6-Difluoro-N-(3-{3-[2-({3-[2-(4-morpholinyl)ethyl]-phenyl}amino)-4-pyrimidinyl]pyrazolo[1,5-a]pyridin-2-yl}phenyl)benzamide], for which the figures for the half-inhibitory concentration (IC50) (in test [1]; with Colo205 tumor cell lines) were less than 100 nM and 100 to 1000 nM, respectively. The “Activity (Method): pIC50 class” value on ErbB2 or EGFR (setting [3]) was “+++ (A) (at least one pIC50 measurement of greater than 7 against either ErbB2 or EGFR)”.
As to `CN(C)CCCOc1ccc(Nc2nccc(-c3c(-c4cccc(NC(=O)c5c(F)cccc5F)c4)nn4ccccc34)n2)cc1Cl` [Example 126, N-[3-(3-{2-[(3-Chloro-4-{[3-(dimethylamino)propyl]-oxy}phenyl)amino]-4-pyrimidinyl}pyrazolo[1,5-a]pyridin-2-yl)phenyl]-2,6-difluorobenzamide], the 50% inhibitory concentration (IC50) was less than 100 nM in test [1] and 100 to 1000 nM in the test with Colo205 tumor cell lines. Besides, the “Activity (Method): pIC50 class” value at ErbB2 or EGFR (setting [2]) is “+++ (B) (at least one pIC50 measurement of greater than 7 against either ErbB2 or EGFR)”.
For the compound `CN(C)CCOc1cccc(Nc2nccc(-c3c(-c4cccc(NC(=O)c5c(F)cccc5F)c4)nn4ccccc34)n2)c1` [Example 61, N-[3-(3-{2-[(3-{[2-(Dimethylamino)ethyl]oxy}-phenyl)amino]-4-pyrimidinyl}pyrazolo[1,5-a]pyridin-2-yl)phenyl]-2,6-difluorobenzamide], the IC50 in test [1] is less than 100 nM; with Colo205 tumor cell lines it was 100 to 1000 nM. Also, the “Activity (Method): pIC50 class” value at ErbB2 or EGFR (setting [2]) is recorded as “+++ (B) (at least one pIC50 measurement of greater than 7 against either ErbB2 or EGFR)”.
As for `O=C(Nc1cc(-c2nn3ccccc3c2-c2ccnc(Nc3ccc4c(c3)CNCC4)n2)ccc1F)c1c(F)cccc1F` [Example 160, 2,6-Difluoro-N-(2-fluoro-5-{3-[2-(1,2,3,4-tetrahydro-7-isoquinolinylamino)-4-pyrimidinyl]pyrazolo[1,5-a]pyridin-2-yl}phenyl)benzamide], the IC50 (in test [1]; in the test with Colo205 tumor cell lines) was less than 100 nM throughout. Besides, the “Activity (Method): pIC50 class” value at ErbB2 or EGFR (setting [2]) is listed as “+++ (B) (at least one pIC50 measurement of greater than 7 against either ErbB2 or EGFR)”.
For `COC(=O)CCCOc1ccc(Nc2nccc(-c3c(-c4cccc(NC(=O)c5c(F)cccc5F)c4)nn4ccccc34)n2)cc1Cl` [Example 162, Methyl 4-{[2-chloro-4-({4-[2-(3-{[(2,6-difluorophenyl)carbonyl]-amino}phenyl)pyrazolo[1,5-a]pyridin-3-yl]-2-pyrimidinyl}amino)phenyl]oxy}-butanoate], the IC50 (in test [1]; in the test with Colo205 tumor cell lines) was 100 to 1000 nM throughout. In addition, the “Activity (Method): pIC50 class” value at ErbB2 or EGFR (setting [2]) was “++ (B) (at least one pIC50 measurement greater than 6 against either ErbB2 or EGFR but no measurement greater than pIC50 of 7)”.
On to `CC(c1cccc(Nc2nccc(-c3c(-c4cccc(NC(=O)c5c(F)cccc5F)c4)nn4ccccc34)n2)c1)S(C)(=O)=O` (racemic) [Example 117, 2,6-Difluoro-N-(3-{3-[2-({3-[1-(methylsulfonyl)ethyl]-phenyl}amino)-4-pyrimidinyl]pyrazolo[1,5-a]pyridin-2-yl}phenyl)benzamide], for which the IC50 in test [1] was less than 100 nM; in the test on Colo205 tumor cell lines it was 100 to 1000 nM. Moreover, the “Activity (Method): pIC50 class” value at ErbB2 or EGFR (setting [3]) is “++ (A) (at least one pIC50 measurement greater than 6 against either ErbB2 or EGFR but no measurement greater than pIC50 of 7)”.
For the compound `CN1CCN(c2ccc(Nc3nccc(-c4c(-c5cccc(NC(=O)c6c(F)cccc6F)c5)nn5ccccc45)n3)cc2)CC1` [Example 91], the concentration for half-maximal inhibition (IC50) is less than 100 nM in test [1] and 100 to 1000 nM in the test on Colo205 tumor cell lines. Further, the “Activity (Method): pIC50 class” value on ErbB2 or EGFR (setting [2]) was “+++ (B) (at least one pIC50 measurement of greater than 7 against either ErbB2 or EGFR)”.
For `CN1CCN(c2cccc(Nc3nccc(-c4c(-c5cccc(NC(=O)c6c(F)cccc6F)c5)nn5ccccc45)n3)c2)CC1` [Example 109, 2,6-Difluoro-N-{3-[3-(2-{[3-(4-methyl-1-piperazinyl)-phenyl]amino}-4-pyrimidinyl)pyrazolo[1,5-a]pyridin-2-yl]phenyl}benzamide], the IC50 in test [1] is less than 100 nM; in the test with Colo205 tumor cell lines, 100 to 1000 nM. In addition, the “Activity (Method): pIC50 class” value at ErbB2 or EGFR (setting [2]) was “+++ (B) (at least one pIC50 measurement of greater than 7 against either ErbB2 or EGFR)”.
With `O=C(Nc1cccc(-c2nn3ccccc3c2-c2ccnc(Nc3ccc(N4CCOCC4)cc3)n2)c1)c1cc(F)ccc1F` [Example 45, 2,5-Difluoro-N-{3-[3-(2-{[4-(4-morpholinyl)phenyl]amino}-4-pyrimidinyl)pyrazolo[1,5-a]pyridin-2-yl]phenyl}benzamide], the half-inhibitory concentration (IC50) in test [1] was less than 100 nM; in the test with Colo205 tumor cell lines it was 100 to 1000 nM. The “Activity (Method): pIC50 class” value at ErbB2 or EGFR (setting [3]) is listed as “+++ (A) (at least one pIC50 measurement of greater than 7 against either ErbB2 or EGFR)”.
Turning to `CS(=O)(=O)Cc1ccc(Nc2nccc(-c3c(-c4cccc(NC(=O)c5c(F)cccc5F)c4)nn4ccccc34)n2)cc1` [Example 116, 2,6-Difluoro-N-(3-{3-[2-({4-[(methylsulfonyl)methyl]-phenyl}amino)-4-pyrimidinyl]pyrazolo[1,5-a]pyridin-2-yl}phenyl)benzamide], the IC50 was less than 100 nM in test [1] and 100 to 1000 nM in the test on Colo205 tumor cell lines. Further, the “Activity (Method): pIC50 class” value at ErbB2 or EGFR (setting [2]) was “+++ (B) (at least one pIC50 measurement of greater than 7 against either ErbB2 or EGFR)”.
With `Cn1cccc1C(=O)Nc1cccc(-c2nn3ccccc3c2-c2ccnc(Nc3cccc(C#N)c3)n2)c1` [Example 150, N-{3-[3-(2-(3-Cyanophenyl)amino-4-pyrimidinyl)-pyrazolo[1,5-b]pyridin-2-yl]-phenyl}-1-methyl-1H-pyrrole-2-carboxamide], the values for the IC50 (in test [1]; with Colo205 tumor cell lines) were less than 100 nM and greater than 1000 nM, respectively. In addition, on ErbB2 or EGFR (setting [2]), the “Activity (Method): pIC50 class” value is “+++ (B) (at least one pIC50 measurement of greater than 7 against either ErbB2 or EGFR)”.
In the case of `CCS(=O)(=O)c1ccc(OC)c(Nc2nccc(-c3c(-c4cccc(NC(=O)c5c(F)cccc5F)c4)nn4ccccc34)n2)c1` [Example 121, N-{3-[3-(2-{[5-(ethylsulfonyl)-2-(methyloxy)phenyl]-amino}-4-pyrimidinyl)pyrazolo[1,5-a]pyridin-2-yl]phenyl}-2,6-difluorobenzamide], the IC50 is 100 to 1000 nM in test [1] and greater than 1000 nM in the test with Colo205 tumor cell lines. At ErbB2 or EGFR (setting [3]), the “Activity (Method): pIC50 class” value is reported as “+++ (A) (at least one pIC50 measurement of greater than 7 against either ErbB2 or EGFR)”.
Consider `CN(C)Cc1ccc(Nc2nccc(-c3c(-c4cccc(NC(=O)c5c(F)cccc5F)c4)nn4ccccc34)n2)cc1` [Example 108, N-(3-{3-[2-({4-[(Dimethylamino)methyl]phenyl}-amino)-4-pyrimidinyl]pyrazolo[1,5-a]pyridin-2-yl}phenyl)-2,6-difluorobenzamide], for which the IC50 (in test [1]; in the test on Colo205 tumor cell lines) was less than 100 nM each time. Further, on ErbB2 or EGFR (setting [2]), the “Activity (Method): pIC50 class” value is recorded as “+++ (B) (at least one pIC50 measurement of greater than 7 against either ErbB2 or EGFR)”.
